Laboratory results from patent US12655142B2 (Merck Patent GmbH, priority 2019, dated 2026).

Legend:
[1] = biological target: T1, c-Kit(V654A) (Homo sapiens, UniProt P10721, V654A); test: c-Kit(V654A) assay (33P-ATP filter binding kinase assay); type: biochemical; settings: recombinant human c-Kit aa 544-end V654A, ATP 200 μM
T1 construct: recombinant human c-Kit, amino acids 544-end containing the V654A mutation; GST (N)
Method in brief: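 Radiometric filter-binding read-out: substrate 33P incorporation counted by scintillation after P30 filtermat washes in 75 mM phosphoric acid and methanol. Enzyme: N-GST recombinant human c-Kit aa 544-end carrying V654A.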

[2] = biological target: T2, GIST430/654 cell line expressing mutated constitutively active cKIT receptor tyrosine kinase (Δ560-576 deletion and V654A point mutation) (Homo sapiens, UniProt P10721, DEL560-576/V654A); test: Cellular cKIT autophosphorylation (phospho-Y307-cKIT, Luminex bead assay) in GIST430/654 cells; type: cell-based; settings: compounds 45 min, read-out: GIST 430/654 IC50
T2 construct: endogenous in cells; host or cells: GIST430/654 cells
T2 sequence (P10721 with tags, fused parts or gaps DEL560-576/V654A): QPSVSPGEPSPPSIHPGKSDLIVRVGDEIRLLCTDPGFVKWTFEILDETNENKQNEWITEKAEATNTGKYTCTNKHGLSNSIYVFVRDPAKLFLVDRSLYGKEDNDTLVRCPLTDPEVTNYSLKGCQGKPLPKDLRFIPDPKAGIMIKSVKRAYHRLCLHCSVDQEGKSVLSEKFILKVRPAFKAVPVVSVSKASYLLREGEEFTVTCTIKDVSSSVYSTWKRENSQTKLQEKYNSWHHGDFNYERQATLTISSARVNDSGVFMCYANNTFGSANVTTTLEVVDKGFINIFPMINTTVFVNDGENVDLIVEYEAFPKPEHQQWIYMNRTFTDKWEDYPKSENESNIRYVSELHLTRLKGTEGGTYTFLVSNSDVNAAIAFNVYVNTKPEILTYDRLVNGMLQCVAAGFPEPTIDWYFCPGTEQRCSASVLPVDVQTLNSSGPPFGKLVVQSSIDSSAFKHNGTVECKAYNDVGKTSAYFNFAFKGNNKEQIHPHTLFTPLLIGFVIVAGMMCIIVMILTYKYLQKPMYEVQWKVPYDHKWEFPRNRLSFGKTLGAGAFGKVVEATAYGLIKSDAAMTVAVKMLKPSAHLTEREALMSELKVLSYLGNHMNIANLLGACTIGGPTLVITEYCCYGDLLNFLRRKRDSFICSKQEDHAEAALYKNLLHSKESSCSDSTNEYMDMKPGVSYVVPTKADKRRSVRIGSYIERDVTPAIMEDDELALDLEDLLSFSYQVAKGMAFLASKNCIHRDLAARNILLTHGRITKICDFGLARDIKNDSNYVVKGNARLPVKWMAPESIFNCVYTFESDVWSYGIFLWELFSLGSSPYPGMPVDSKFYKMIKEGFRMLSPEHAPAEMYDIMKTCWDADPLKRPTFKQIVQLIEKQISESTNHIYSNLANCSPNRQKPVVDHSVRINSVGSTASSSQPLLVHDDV
Method in brief: (§1)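 Phospho-Y307 cKIT in lysates was measured on a Luminex bead assay, with total-cKIT capture overnight at 4 °C and phosphospecific plus PE secondary detection. Cells had 45 min exposure to a compound dilution series the day after plating: GIST430 (Δ560-576) or GIST430/654 (Δ560-576/V654A, grown with 100 nM imatinib). IC50 values are relative to 0.3% DMSO-treated cells.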

[3] = biological target: T3, GIST430 cell line expressing constitutive active cKIT receptor tyrosine kinase (Δ560-576 deletion) (Homo sapiens, UniProt P10721, DEL560-576); test: Cellular cKIT autophosphorylation (phospho-Y307-cKIT, Luminex bead assay) in GIST430 cells; type: cell-based; settings: cKIT autophosphorylation, GIST430 cells, compounds 45 min; read-out: GIST 430 IC50
T3 construct: endogenous in cells; host or cells: GIST430 cells
T3 sequence (P10721 with tags, fused parts or gaps DEL560-576): as the sequence (P10721 with tags, fused parts or gaps DEL560-576/V654A) above, with A612V counted along it
Method in brief: as §1

[4] = Determination of solubility; settings: 20 mM Sorensen phosphate buffer, pH 7.4, aqueous buffer, kinetic from dmso stock
Description: (§2) In a 96 well filtration plate, 2 μL of a 10 mM solution of the test compound in DMSO is added to 98 μL of 20 mM Sorensen phosphate buffer with pH 7.4. The mixture is incubated at room temperature for 120 min while agitating at 250 rpm followed by centrifugation at 2500 rpm for 3 min. After dilution by a factor of 2, the concentration of the test compound is determined using HPLC/UPLC with detection at a suitable wavelength and by comparison to a corresponding compound standard.

[5] = Determination of Efflux-Ratio (ER) in Caco-2 cells; settings: human, Caco-2, pH 7.4
[6] = pH 7.4
Description: as §2

T1 sequence (P10721 544-976 V654A): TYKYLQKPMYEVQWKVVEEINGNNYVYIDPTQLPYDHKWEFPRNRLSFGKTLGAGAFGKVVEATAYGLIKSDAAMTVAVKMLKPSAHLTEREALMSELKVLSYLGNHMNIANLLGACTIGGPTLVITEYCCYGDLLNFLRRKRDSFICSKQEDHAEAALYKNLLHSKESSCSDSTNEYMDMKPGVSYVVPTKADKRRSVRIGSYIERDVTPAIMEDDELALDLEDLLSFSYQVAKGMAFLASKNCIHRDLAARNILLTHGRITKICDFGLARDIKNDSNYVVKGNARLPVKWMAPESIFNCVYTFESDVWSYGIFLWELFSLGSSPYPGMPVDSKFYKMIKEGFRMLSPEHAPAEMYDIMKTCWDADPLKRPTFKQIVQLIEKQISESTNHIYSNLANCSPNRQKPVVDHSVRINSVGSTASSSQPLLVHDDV

Structure (SMILES) | IC50 [1] [nM] | IC50 [2] [nM] | IC50 [3] [nM] | solubility at 120 min [4] [µM] | efflux ratio at 2 h, 1 μM [5] | solubility [6]
Cn1cc(-c2ccc(CNc3cc(-c4cnc5cc(OCCCN6CCCC6)ccn45)ncn3)cc2)cn1 [A75, [4-(1-methyl-1H-pyrazol-4-yl)-benzyl]-{6-[7-(3-pyrrolidin-1-yl-propoxy)-imidazo[1,2-a]pyridin-3-yl]-pyrimidin-4-yl}-amine] | 8.5 | 59 | 2.9 | ≥ 25 | < 15 | 
Cn1ncc(-c2ccc(CNc3cc(-c4cnc5cc(OCCCN6CCCC6)ccn45)ncn3)cc2)n1 [A84, [4-(2-methyl-2H-[1,2,3]triazol-4-yl)-benzyl]-{6-[7-(3-pyrrolidin-1-yl-propoxy)-imidazo[1,2-a]pyridin-3-yl]-pyrimidin-4-yl}-amine] | 2.8 | 45 | 2.4 | ≥ 25 | < 15 | 

The next lines start with the values.

IC50 [1] [nM] | IC50 [2] [nM] | IC50 [3] [nM] | solubility at 120 min [4] [µM] | efflux ratio at 2 h, 1 μM [5] | solubility [6] | Structure (SMILES)
9.8 | 46 | 3 |  |  | at least 25 μM | Cn1cc(-c2ccc(CNc3cc(-c4cnc5cc(OCCCN6CCC6)ccn45)ncn3)cc2)cn1 [A102]
2.9 | 52 | 2.3 | ≥ 25 | < 15 |  | Cn1ncc(-c2ccc(CNc3cc(-c4cnc5cc(OCCCN6CCC6)ccn45)ncn3)cc2)n1 [A120, {6-[7-(3-azetidin-1-yl-propoxy)-imidazo[1,2-a]pyridin-3-yl]-pyrimidin-4-yl}-[4-(2-methyl-2H-[1,2,3]triazol-4-yl)-benzyl]-amine]
6.4 | 120 | 6.4 | ≥ 25 | < 15 |  | F[C@@H]1CCN(c2ccc(CNc3cc(-c4cnc5ccccn45)ncn3)cn2)C1 [A153, N-({6-[(3R)-3-fluoropyrrolidin-1-yl]pyridin-3-yl}methyl)-6-{imidazo[1,2-a]pyridin-3-yl}pyrimidin-4-amine]
